Experiments:
CDK2 = biological target: T1, CDK2 (Homo sapiens, UniProt P24941); assay: CDK protein degradation activity (Western blotting), CDK2; format: cell-based; conditions: MDA-MB-231 cells, 16 hours, Western blot
T1 construct: endogenous in cells; host or cells: MDA-MB-231
Outline: (§1)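 MDA-MB-231; cmpd 100 nM / 1 μM / 10 μM final vs DMSO, 16 h. Triton X-100 lysates (pH 7.5, phosphatase/protease inhibitors) → SDS-PAGE → Western blot, anti-CDK2, anti-CDK9, tubulin loading control; densitometry.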

CDK9 = biological target: T2, CDK9 (Homo sapiens, UniProt P50750); assay: CDK protein degradation activity (Western blotting), CDK9; format: cell-based; conditions: MDA-MB-231 cells, 16 hours, Western blot
T2 construct: endogenous in cells; host or cells: MDA-MB-231
T2 sequence (P50750 whole entry): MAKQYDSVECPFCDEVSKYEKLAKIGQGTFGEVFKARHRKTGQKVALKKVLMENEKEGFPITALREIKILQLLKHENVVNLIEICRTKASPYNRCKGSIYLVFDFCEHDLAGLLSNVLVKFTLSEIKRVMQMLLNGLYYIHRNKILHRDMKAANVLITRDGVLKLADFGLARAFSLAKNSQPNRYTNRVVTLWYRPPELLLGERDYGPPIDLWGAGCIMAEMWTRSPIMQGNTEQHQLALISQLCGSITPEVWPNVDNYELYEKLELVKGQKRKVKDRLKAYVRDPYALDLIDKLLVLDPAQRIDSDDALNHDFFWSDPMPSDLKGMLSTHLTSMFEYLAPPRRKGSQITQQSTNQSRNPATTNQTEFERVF
Outline: as §1

Row | SMILES | Enzyme degradation CDK2 (% remaining) @ 0.1 μM (CDK2) | Enzyme degradation CDK2 (% remaining) @ 1 μM (CDK2) | Enzyme degradation CDK2 (% remaining) @ 10 μM (CDK2) | Enzyme degradation CDK9 (% remaining) @ 0.1 μM (CDK9) | Enzyme degradation CDK9 (% remaining) @ 1 μM (CDK9) | Enzyme degradation CDK9 (% remaining) @ 10 μM (CDK9)
1 | O=C1CC[C@H](N2C(=O)c3ccc(N4CCC(CN5CCC(CCNc6ncnc7c6ncn7C6CC(NC(=O)Cc7ccccc7)C6)CC5)CC4)cc3C2=O)C(=O)N1 (stereo partly drawn) [Compound 423, N-((1s,3s)-3-(6-((2-(1-((1-(2-(2,6-dioxopiperidin-3-yl)-1,3-dioxoisoindolin-5-yl)piperidin-4-yl)methyl)piperidin-4-yl)ethyl)amino)-9H-purin-9-yl)cyclobutyl)-2-phenylacetamide] | 30% | 20% | 20% | 20% | 10% | 10%
2 | O=C1CC[C@H](N2C(=O)c3cccc(CCCCN4CCC(CN5CCN(c6ccc(Nc7ncnc8c7ncn8[C@H]7C[C@@H](NC(=O)c8cccc(C(F)(F)F)n8)C7)cc6)CC5)CC4)c3C2=O)C(=O)N1 [Compound 427, N-((1s,3s)-3-(6-((4-(4-((1-(4-(2-(2,6-dioxopiperidin-3-yl)-1,3-dioxoisoindolin-4-yl)butyl)piperidin-4-yl)methyl)piperazin-1-yl)phenyl)amino)-9H-purin-9-yl)cyclobutyl)-6-(trifluoromethyl)picolinamide] | 20/20/20% | 20/20/20% | 20/20/20% | 0% | 0% | 20%
3 | O=C1CC[C@H](N2C(=O)c3cc(F)c(N4CCC(CN5CCN(c6ccc(Nc7ncnc8c7ncn8C7CC(NC(=O)c8cccc(F)n8)C7)cc6)CC5)CC4)cc3C2=O)C(=O)N1 (stereo partly drawn) [Compound 428, N-((1s,3s)-3-(6-((4-(4-((1-(2-(2,6-dioxopiperidin-3-yl)-6-fluoro-1,3-dioxoisoindolin-5-yl)piperidin-4-yl)methyl)piperazin-1-yl)phenyl)amino)-9H-purin-9-yl)cyclobutyl)-6-fluoropicolinamide] | 10/10/10% | 10/10/10% | 10/10/10% | 0/0/0% | 0/0/0% | 0/0/0%
4 | O=C1CC[C@H](N2C(=O)c3cccc(NCC(=O)N4CCC(CN5CCN(c6ccc(Nc7ncnc8c7ncn8C7CC(NC(=O)c8cccc(F)n8)C7)cc6)CC5)CC4)c3C2=O)C(=O)N1 (stereo partly drawn) [Compound 430, N-((1s,3s)-3-(6-((4-(4-((1-((2-(2,6-dioxopiperidin-3-yl)-1,3-dioxoisoindolin-4-yl)glycyl)piperidin-4-yl)methyl)piperazin-1-yl)phenyl)amino)-9H-purin-9-yl)cyclobutyl)-6-fluoropicolinamide] | 10/10/10% | 10/10/10% | 10/10/10% | 0/0/0% | 0/0/0% | 0/0/0%
5 | O=C1CC[C@H](N2C(=O)c3cccc(CCCN4CCC(CN5CCN(c6ccc(Nc7ncnc8c7ncn8C7CC(NC(=O)c8cccc(F)n8)C7)cc6)CC5)CC4)c3C2=O)C(=O)N1 (stereo partly drawn) [Compound 431, N-((1s,3s)-3-(6-((4-(4-((1-(3-(2-(2,6-dioxopiperidin-3-yl)-1,3-dioxoisoindolin-4-yl)propyl)piperidin-4-yl)methyl)piperazin-1-yl)phenyl)amino)-9H-purin-9-yl)cyclobutyl)-6-fluoropicolinamide] | 30/30/30% | 30/30/30% | 30/30/30% | 0/0/0% | 0/0/0% | 0/0/0%

The next lines start with the values.

Row | Enzyme degradation CDK2 (% remaining) @ 0.1 μM (CDK2) | Enzyme degradation CDK2 (% remaining) @ 1 μM (CDK2) | Enzyme degradation CDK2 (% remaining) @ 10 μM (CDK2) | Enzyme degradation CDK9 (% remaining) @ 0.1 μM (CDK9) | Enzyme degradation CDK9 (% remaining) @ 1 μM (CDK9) | Enzyme degradation CDK9 (% remaining) @ 10 μM (CDK9) | SMILES
6 | 10/10/10% | 10/10/10% | 10/10/10% | 0/0/0% | 0/0/0% | 0/0/0% | O=C1CC[C@H](n2nnc3ccc(N4CCC(CN5CCN(c6ccc(Nc7ncnc8c7ncn8[C@H]7C[C@@H](NC(=O)c8cccc(C(F)(F)F)n8)C7)cc6)CC5)CC4)cc3c2=O)C(=O)N1 [Compound 424, N-((1s,3s)-3-(6-((4-(4-((1-(3-(2,6-dioxopiperidin-3-yl)-4-oxo-3,4-dihydrobenzo[d][1,2,3]triazin-6-yl)piperidin-4-yl)methyl)piperazin-1-yl)phenyl)amino)-9H-purin-9-yl)cyclobutyl)-6-(trifluoromethyl)picolinamide]
7 | 0/0/0% | 0/0/0% | 0/0/0% | 0/0/0% | 0/0/0% | 0/0/0% | O=C1CC[C@H](N2C(=O)c3cccc(NCC(=O)N4CCC(CN5CCN(c6ccc(Nc7ncnc8c7ncn8[C@H]7C[C@@H](NC(=O)c8cccc(C(F)(F)F)n8)C7)cc6)CC5)CC4)c3C2=O)C(=O)N1 [Compound 425, N-((1s,3s)-3-(6-((4-(4-((1-((2-(2,6-dioxopiperidin-3-yl)-1,3-dioxoisoindolin-4-yl)glycyl)piperidin-4-yl)methyl)piperazin-1-yl)phenyl)amino)-9H-purin-9-yl)cyclobutyl)-6-(trifluoromethyl)picolinamide]
8 | 10% | 10% | 30% | 0% | 0% | 20% | O=C1CC[C@H](N2C(=O)c3cccc(CCCN4CCC(CN5CCN(c6ccc(Nc7ncnc8c7ncn8C7CC(NC(=O)c8cccc(C(F)(F)F)n8)C7)cc6)CC5)CC4)c3C2=O)C(=O)N1 (stereo partly drawn) [Compound 426, N-((1s,3s)-3-(6-((4-(4-((1-(3-(2-(2,6-dioxopiperidin-3-yl)-1,3-dioxoisoindolin-4-yl)propyl)piperidin-4-yl)methyl)piperazin-1-yl)phenyl)amino)-9H-purin-9-yl)cyclobutyl)-6-(trifluoromethyl)picolinamide]
9 | 10/10/10% | 10/10/10% | 10/10/10% | 0/0/0% | 0/0/0% | 0/0/0% | O=C1CC[C@H](n2nnc3ccc(N4CCC(CN5CCN(c6ccc(Nc7ncnc8c7ncn8C7CC(NC(=O)c8cccc(F)n8)C7)cc6)CC5)CC4)cc3c2=O)C(=O)N1 (stereo partly drawn) [Compound 429, N-((1s,3s)-3-(6-((4-(4-((1-(3-(2,6-dioxopiperidin-3-yl)-4-oxo-3,4-dihydrobenzo[d][1,2,3]triazin-6-yl)piperidin-4-yl)methyl)piperazin-1-yl)phenyl)amino)-9H-purin-9-yl)cyclobutyl)-6-fluoropicolinamide]
